Test results taken from publication PMC7070818 (Clinical and Translational Science, 2019).
Read-outs that look alike come from different tables or passages of the source. One block for each compound: values may come before it.

Assays:
[1] = fasted state; cited from earlier work
[2] = format: in vivo, human; settings: for AUC(0-t): AUC0–23 hours; for AUC(0-inf): AUC0–∞; for Tmax: median (range)
[3] = cited from earlier work
[4] = test system: Bruton's tyrosine kinase (BTK); settings: cited from earlier work
[5] = male, human, plasma, oral, 140 mg, placebo phase, 140‐mg ibrutinib dose, geometric mean (geometric CV)
[6] = male, human, plasma, oral, itraconazole phase, dose‐adjusted to a 140‐mg dose, geometric mean (geometric CV)
[7] = male, human, plasma, oral, itraconazole phase, unadjusted, 15‐mg ibrutinib dose, geometric mean (geometric CV)
[8] = itraconazole phase (15 mg, unadjusted) vs placebo phase (140 mg)
[9] = itraconazole phase (dose‐adjusted to 140 mg) vs placebo phase
[10] = itraconazole phase vs placebo phase
[11] = itraconazole phase, dose‐adjusted to a 140‐mg dose, geometric mean (geometric CV)
[12] = itraconazole phase, unadjusted, 15‐mg ibrutinib dose, geometric mean (geometric CV)
[13] = placebo phase, 140‐mg ibrutinib dose, geometric mean (geometric CV)
[14] = unadjusted, 15 mg ibrutinib during itraconazole, 140 mg during placebo

Cmax ([2]; male, human, plasma, oral): 192 ng/mL | AUC(0-t) [2, 5]: 74.4 ng·h/mL | AUC(0-inf) [2, 5]: 76.5 ng·h/mL | AUC(0-t) [2, 6]: 755 ng·h/mL | AUC(0-t) [2, 7]: 80.9 ng·h/mL | AUC(0-inf) [2, 6]: 764 ng·h/mL | AUC(0-inf) [2, 7]: 81.9 ng·h/mL | Cmax ([2]; male, human, plasma, po): 20.6 ng/mL | Cmax ([2]; male, human, plasma, po, 140 mg): 22 ng/mL
SMILES: C=CC(=O)N1CCC[C@@H](n2nc(-c3ccc(Oc4ccccc4)cc3)c3c(N)ncnc32)C1 [Ibrutinib, ibrutinib, reference compound]
Mean oral bioavailability [1]: about 3% | Enhancement of bioavailability by food [3]: about twofold | Increase of AUC by ketoconazole ([3]; fasted state, healthy volunteers): 24 fold | Increase of AUC by grapefruit juice ([3]; fed conditions, healthy adults): 2.2 fold

AUC0–23 hours geometric mean ratio (90% CI) [2, 8]: 0.10 (0.08, 0.11) | AUC0–∞ geometric mean ratio (90% CI) [2, 8]: 0.10 (0.09, 0.12) | Cmax geometric mean ratio (90% CI) [2, 8]: 0.07 (0.06, 0.09) | AUC0–23 hours geometric mean ratio (90% CI) [2, 9]: 0.91 (0.78, 1.07) | AUC0–∞ geometric mean ratio (90% CI) [2, 9]: 0.97 (0.82, 1.16) | Cmax geometric mean ratio (90% CI) [2, 9]: 0.68 (0.59, 0.79) | t1/2 geometric mean ratio (90% CI) ([2]; itraconazole phase (dose‐adjusted) column vs placebo phase): 1.3 (1.10, 1.46) | t1/2 ([2]; itraconazole phase (dose‐adjusted) column, geometric mean (geometric CV)): 8.1 (0.28) hour | PCI‐45227/Ibrutinib AUC0‐∞ ratio, geometric mean ratio (90% CI) [2, 10]: 0.10 (0.08, 0.12) | t1/2 geometric mean ratio (90% CI) [2, 10]: 1.3 (1.10, 1.46) | AUC0–23 hours [2, 11]: 214.3 (0.36) ng·hour/mL | AUC0–∞ [2, 11]: 256.0 (0.42) ng·hour/mL | Cmax [2, 11]: 21.2 (0.28) ng/mL | AUC0–23 hours [2, 12]: 23.0 (0.36) ng·hour/mL | AUC0–∞ [2, 12]: 27.4 (0.42) ng·hour/mL | t1/2 ([2]; itraconazole phase, 15‐mg ibrutinib dose, geometric mean (geometric CV)): 8.1 (0.28) hour | Tmax ([2]; itraconazole phase, 15‐mg ibrutinib dose): 3 (1.5–4) hour | PCI‐45227/Ibrutinib AUC0‐∞ ratio ([2]; itraconazole phase, geometric mean (geometric CV)): 0.34 (0.28) | PCI‐45227/Ibrutinib AUC0–∞ ratio during itraconazole, relative to control ([2]; itraconazole vs placebo): 10 % of control | AUC0–23 hours [2, 13]: 235.2 (0.43) ng·hour/mL | AUC0–∞ [2, 13]: 262.8 (0.45) ng·hour/mL | t1/2 [2, 13]: 6.4 (0.27) hour | Tmax ([2]; placebo phase, 140‐mg ibrutinib dose): 3 (1.5–4) hour | PCI‐45227/Ibrutinib AUC0‐∞ ratio ([2]; placebo phase, geometric mean (geometric CV)): 3.4 (0.57) | AUC0‐∞ during itraconazole phase relative to placebo phase [2, 14]: 10% | Cmax during itraconazole phase relative to placebo phase [2, 14]: 7%
SMILES: Nc1ncnc2c1c(-c1ccc(Oc3ccccc3)cc1)nn2[C@@H]1CCCN(C(=O)C(O)CO)C1 (stereo partly shown) [PCI‐45227]
Inhibitory activity toward BTK relative to parent ibrutinib [4]: about 15 times lower
